Measured values reported in US12144800B2 (priority 2015, dated 2024).
Read-outs that look alike come from different tables or passages of the source.

What was measured:
C. perfringens spores [1] = type: cell-based, Clostridium perfringens; conditions: for induction of spore germination by bile salt in the presence of amino acids: BA pathway; for triggering of spore germination by detergent: even in the presence of excess L-alanine
C. perfringens spores [2] = type: cell-based, Clostridium perfringens; conditions: for effect of added salt on AA pathway response / effect of added salt on BA germination pathway: potassium phosphate or sodium phosphate buffer; for effect of added salt on AA pathway response / effect of added salt on BA pathway / effect of added salt on BA germination pathway: 150 mM salt; for effect of added salt on BA pathway: spores resuspended in sodium phosphate buffer
C. perfringens strains = type: cell-based, Clostridium perfringens
C. perfringens spores [3] = conditions: spore germination inhibition
C. perfringens spores [4] = experiment: microbe, parasite or virus in culture; conditions: Clostridium perfringens, read-out: IC50, inhibition of C. perfringens spore germination
C. perfringens spores [5] = conditions: with L-alanine, in place of L-phenylalanine
[6] = in the presence of theobromine, strains 1936, 1473, 1882

C[C@H](CCC(=O)O)[C@H]1CC[C@H]2[C@@H]3[C@H](O)C[C@@H]4C[C@H](O)CC[C@]4(C)[C@H]3C[C@H](O)[C@]12C [Cholate]
induction or inhibition of spore germination in the presence of L-alanine (C. perfringens spores [1]): did not induce or inhibit

C[C@H](CCC(=O)NCC(=O)O)[C@H]1CC[C@H]2[C@@H]3[C@H](O)C[C@@H]4C[C@H](O)CC[C@]4(C)[C@H]3C[C@H](O)[C@]12C [Glycocholate]
induction of spore germination by bile salt in the presence of amino acids (C. perfringens spores [1]): induced C. perfringens spore germination

[Cl-].[K+] [KCl]
effect of added salt on AA pathway response (C. perfringens spores [2]): did not affect | effect of added salt on BA pathway (C. perfringens spores [2]): induced the BA pathway

C[C@H](CCC(=O)NCCS(=O)(=O)O)[C@H]1CC[C@H]2[C@@H]3[C@H](O)C[C@@H]4C[C@H](O)CC[C@]4(C)[C@H]3CC[C@]12C [taurochenodeoxycholate]
induction of spore germination by bile salt in the presence of amino acids (C. perfringens spores [1]): induced C. perfringens spore germination

O=C([O-])O.[K+] [potassium bicarbonate]
effect of added bicarbonate on germination rate (C. perfringens spores [2]): increased germination rate

Cn1cnc2c1c(=O)[nH]c(=O)n2C [theobromine]
time at which spores could be detected (C. perfringens strains; [6]): two days after plating | time of maximum sporulation levels (C. perfringens strains; [6]): 5-7 days post-plating | effect of theobromine on sporulation level (C. perfringens strains; strain 1473): decreased | Theobromine, effect on sporulation (C. perfringens strains; strain 1473, inoculum BHI, peptone #3): Increases sporulation | Theobromine, effect on sporulation (C. perfringens strains; strain 1473, inoculum Thioglycollate, peptone #1): Reduces sporulation | Theobromine, effect on sporulation (C. perfringens strains; strain 1521, inoculum Thioglycollate, peptone #1): Required for sporulation | effect of theobromine on sporulation level (C. perfringens strains; strain 1882): increased | Theobromine, effect on sporulation (C. perfringens strains; strain 1882, inoculum BHI, peptone #2): Increases sporulation | effect of theobromine on sporulation level (C. perfringens strains; strain 1936): remained unchanged | Theobromine, effect on sporulation (C. perfringens strains; strain 1936, inoculum BHI, peptone #1): No effect on sporulation | Theobromine, effect on sporulation (C. perfringens strains; strain 4064, inoculum BHI, peptone #1): Required for sporulation | Theobromine, effect on sporulation (C. perfringens strains; strain 4104, inoculum BHI, peptone #3): Required for sporulation | Theobromine, effect on sporulation (C. perfringens strains; strain 4104, inoculum Thioglycollate, peptone #3): Required for sporulation | Theobromine, effect on sporulation (C. perfringens strains; strain 4121, inoculum Thioglycollate, peptone #2): Required for sporulation | effect on sporulation times (C. perfringens strains; strains 1936, 1473, 1882): reduced sporulation times | effect of theobromine on sporulation (C. perfringens strains; strains 4104, 4064, 1521, 4121, solid media): only sporulated robustly when theobromine was added

C[C@H](CCC(=O)O)[C@H]1CC[C@H]2[C@@H]3[C@H](O)C[C@@H]4C[C@H](O)CC[C@]4(C)[C@H]3CC[C@]12C [chenodeoxycholate]
induction or inhibition of spore germination in the presence of L-alanine (C. perfringens spores [1]; FIG. 3B): did not induce or inhibit

deoxycholate
induction or inhibition of spore germination in the presence of L-alanine (C. perfringens spores [1]; FIG. 3B): did not induce or inhibit

O=C([O-])O.[Na+] [sodium bicarbonate]
effect of added bicarbonate on germination rate (C. perfringens spores [2]): increased germination rate

[Br-].[Na+] [NaBr]
effect of added salt on AA pathway response (C. perfringens spores [2]): did not affect | effect of added salt on BA germination pathway (C. perfringens spores [2]): did not affect

COc1nc2ccccc2s1 [MOB, 2-methoxy benzothiazole]
inhibitory concentration compared with other analogs (C. perfringens spores [3]): approximately ten times lower than other analogs | IC50 (C. perfringens spores [4]): 98 µM

CSc1nc2ccccc2s1 [2-MTB, 2-methylthiobenzothiazole]
IC50 (C. perfringens spores [4]): 74 µM

Triton-X-100
triggering of spore germination by detergent (C. perfringens spores [1]): Neither detergent was able to trigger

OC[C@H]1O[C@H](OC[C@H]2O[C@H](O[C@]3(CO)O[C@H](CO)[C@@H](O)[C@@H]3O)[C@H](O)[C@@H](O)[C@@H]2O)[C@H](O)[C@@H](O)[C@H]1O [raffinose]
sporulation with the carbon source (C. perfringens strains; 0.5% carbon source in solid medium): preferred carbon source

CCCCCCCCCCCCOS(=O)(=O)[O-].[Na+] [SDS]
triggering of spore germination by detergent (C. perfringens spores [1]): Neither detergent was able to trigger

[Cl-].[Na+] [NaCl]
effect of added salt on AA pathway response (C. perfringens spores [2]): did not affect | effect of added salt on BA germination pathway (C. perfringens spores [2]): did not affect

N[C@@H](Cc1ccc(O)cc1)C(=O)O [L-tyrosine]
germination rate slower than with L-phenylalanine (C. perfringens spores [5]): more than 50%

C[C@H](CCC(=O)NCCS(=O)(=O)O)[C@H]1CC[C@H]2[C@@H]3CC[C@@H]4C[C@H](O)CC[C@]4(C)[C@H]3C[C@H](O)[C@]12C [taurodeoxycholate]
induction of spore germination by bile salt in the presence of amino acids (C. perfringens spores [1]): induced C. perfringens spore germination

[Br-].[K+] [KBr]
effect of added salt on AA pathway response (C. perfringens spores [2]): did not affect | effect of added salt on BA pathway (C. perfringens spores [2]): induced the BA pathway
